# Values joined by “and” are separate entries in the source; they are usually repeats but may differ in a detail not shown here. Equal values may be shown once.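 Assay format: 96-well plates, 48-hour exposure. At the GI50, growth is halved. TGI denotes the concentration required for complete inhibition of growth.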
# Tests used:
# Assay in all cases: inhibition of tumour cell growth, NCI panel, 48 h
# [1] = system: 786-0 renal
# [2] = system: ACHN renal
# [3] = system: HCT-116 colon
# [4] = system: HL-60(TB) leukemia
# [5] = system: MCF7 breast
# [6] = system: NCI-H23 lung
# [7] = system: NCI-H522 lung
# [8] = system: OVCAR-5 ovarian
# [9] = system: RXF 393 renal
# [10] = system: SNB-19 CNS
Compound,GI50 [1] [µM],TGI [1] [µM],GI50 [2],TGI [2] [µM],GI50 [3] [µM],TGI [3] [µM],GI50 [4] [µM],TGI [4] [µM],GI50 [5] [µM],TGI [5] [µM],GI50 [6] [µM],TGI [6],GI50 [7] [µM],TGI [7] [µM],GI50 [8] [µM],TGI [8] [µM],GI50 [9] [µM],TGI [9] [µM],GI50 [10] [µM],TGI [10] [µM]
O=C(CSc1nc2ccc([N+](=O)[O-])cc2[nH]1)Nc1ccc([N+](=O)[O-])cc1,3.02,13.5,2.49 µM,8.02,2.7,> 32.6,2.81,> 25.7,1.95,8.83,2.14,9.51 µM,1.69,9.01,2.78,12.9,1.95,7.24,3.02,18
COc1cc2c3c(n(CCCNC(C)(C)CO)c(=O)c2cc1OC)-c1cc2c(cc1C3=O)OCO2,0.0829,0.66,0.331 µM,14.3,0.35,1.73,0.539,4.16,0.294,> 50.5,0.799,12.3 µM,0.448,> 21.8,16.3,36.8,16.2,> 68,1.83,> 61.2
COc1ccc(/C=C/C(=O)c2ccc(B(O)O)cc2)cc1O,18.7,53.7,22.1 µM,> 84.7,2.64,10.1,2.52,44.2,3.48,32.5,21,69.4 µM,17.8,45.1,21.5,69.5,11.5,39.6,18.7,> 64.3
O=C1NC(=N[C@@H]2C[C@H]2c2ccccc2)S/C1=C\c1ccc2ncccc2c1,2.27,6.01,1.29 µM,8.69,0.839,5.72,0.876,9.47,0.795,4.95,3.87,20.8 µM,0.776,3.12,4.33,> 20.7,1.12,4.84,2.98,24.8
CCOC(=O)c1cc2c(OC)cc(OC)cc2oc1=O,–,> 100,–,> 100,–,> 100,–,> 100,–,> 100,–,> 100 µM,–,> 100,–,> 100,–,> 100,–,> 100
O=C(NCCCNc1cc(-c2cn(-c3ccccc3)nc2-c2cccc(O)c2)ccn1)c1ccc(F)cc1,1.49,3.62,3.36 µM,73.6,2.14,7.38,2.46,6.49,2.32,9.92,2.81,14.8 µM,3.09,11.4,2.62,28.6,1.63,4.63,4.63,29.5
CSc1nc(SC)c2cnn(-c3ccnc4cc(Cl)ccc34)c2n1,38.6,> 100,42 µM,> 86.8,52.9,> 100,21.5,50.6,2.61,> 41,21.2,> 54.9 µM,55.1,> 100,> 100,> 100,14.2,48.6,> 100,> 100
CC[C@@]1(O)C(=O)OCc2c1cc1n(c2=O)Cc2cc3c(OC)cccc3nc2-1,0.00394,1.13,0.00175 µM and < 0.215 µM,–,–,> 100,0.00321,–,–,> 100,0.0069,0.0775 µM and 0.505 µM,0.028,2.12,0.0386,7.13,4.13e-05,–,0.00642,> 31.9
Clc1ccc(Nc2ncnc3ccccc23)cc1,64.7,> 100,11.1 µM,71.7,81.5,> 100,36.7,> 100,30.4,> 100,74.6,> 100 µM,15.5,55.8,> 100,> 100,47.7,> 100,> 100,> 100
CN1CCN(C(=O)OCc2nc3c(N4CCOCC4)nc(-c4ccccc4)nc3n2C)CC1,0.993,2.36,0.544 µM,1.77,0.207,0.648,0.753,2.66,0.389,2.11,1.54,3.21 µM,0.596,2.4,1.46,3,0.687,1.98,1.45,2.78
CC(C)c1ccc2c(c1)CCC1C(C)(CN)CCCC21C (stereo not given),–,2.89,–,3.09,–,2.93,–,3.09,–,2.82,–,3.36 µM,–,3.36,–,3.33,–,2.98,–,2.96
O=C1/C(=C\c2ccc(Cl)cc2)CN(C(=O)c2ccccc2)C/C1=C\c1ccc(Cl)cc1,2.19,4.6,2.73 µM,8.17,0.337,1.04,6.58,66.2,0.437,3.09,3.13,12.5 µM,3.22,10.8,5.24,43.2,1.68,3.26,3.27,19.3
O=C(NC(=S)Nc1ccc(-c2nc3ccccc3[nH]2)cc1)c1ccc2ccccc2c1,1.88,3.52,1.92 µM,4.02,2.56,7.33,6.31,26,4.56,> 100,17.8,> 100 µM,18.9,> 100,3.75,16.6,1.92,3.77,68.1,> 100

# — PubChem BioAssay (NCI)
